Test systems include M14 melanoma; SR leukemia; 786-0 renal; SF-295 CNS; K-562 leukemia; MDA-MB-231 breast; UACC-257 melanoma; SW-620 colon; HT29 colon; U251 CNS.
What all share (experiment): DTP human tumour cell line panel, 48 h

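Tested at 5 concentrations; 48 h exposure; 96-well plates; endpoints linearly interpolated, else capped at highest concentration. GI50 is the concentration that inhibits growth by half. Definition used: TGI = concentration required for complete inhibition of growth.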

As a reminder, the GI50 is the concentration at which growth is held to half of that of the control. What is called TGI is the concentration at which net growth stops. The low end stands for more potent growth arrest, the high end for less potent growth arrest. On to `CN1CCN(Cc2ccc(NC(=O)c3cncc(C#Cc4cnc(N)c5cnccc45)c3)cc2C(F)(F)F)CC1`, for which the GI50 with M14 melanoma is 0.0727 µM; in the assay on SR leukemia, 0.229 µM; in the assay on 786-0 renal it was 0.314 µM; in the assay with SF-295 CNS, 0.799 µM; with K-562 leukemia it was 0.005 µM; in the assay on MDA-MB-231 breast, 0.0722 µM. Also, the GI50 in the assay on UACC-257 melanoma was 0.161 µM; in the assay on SW-620 colon it was 0.182 µM; with HT29 colon, 0.115 µM; in the assay on U251 CNS, 0.209 µM. Also, the TGI is 0.281 µM in the assay with M14 melanoma; 2.97 µM in the assay on SR leukemia; 7.73 µM in the assay on 786-0 renal; 7.07 µM with SF-295 CNS; 0.732 µM in the assay on K-562 leukemia; 0.223 µM in the assay with MDA-MB-231 breast. Moreover, the TGI is 1.45 µM with UACC-257 melanoma, 2.62 µM with SW-620 colon, 6.1 µM in the assay with HT29 colon and 7.62 µM in the assay on U251 CNS.

With `CN(C)CCNC(=O)NC[C@H]1CC[C@@H]2[C@H](O1)c1cc(C(F)(F)F)ccc1N[C@H]2c1ccccc1`, the GI50 is 0.041 µM with M14 melanoma; 0.0411 µM in the assay with SR leukemia; 5.42 µM in the assay with 786-0 renal; 0.194 µM with SF-295 CNS; 0.0757 µM in the assay with K-562 leukemia; 0.24 µM in the assay on MDA-MB-231 breast. For the same compound, the GI50 with UACC-257 melanoma is 10.5 µM; in the assay on SW-620 colon, 0.0765 µM; in the assay on HT29 colon, 0.303 µM; with U251 CNS it was 0.0537 µM. In addition, the TGI in the assay on M14 melanoma came to 0.684 µM; in the assay on SR leukemia, 15.1 µM; with 786-0 renal, 36.3 µM; with SF-295 CNS, 5.73 µM; in the assay with K-562 leukemia it was 14.8 µM; in the assay on MDA-MB-231 breast, 3.6 µM. Besides, the TGI turned out to be 23.9 µM with UACC-257 melanoma, 17.1 µM in the assay with SW-620 colon, 11.2 µM in the assay on HT29 colon and 1.69 µM with U251 CNS.

Regarding `C[CH2][Sn]([CH2]C)([O]C(=O)c1ccc(OC)c(OC)c1OC)[O]C(=O)c1ccc(OC)c(OC)c1OC`, the GI50 with M14 melanoma was 61.9 µM; in the assay on SR leukemia, 48 µM; in the assay on 786-0 renal it was 58.6 µM; with SF-295 CNS it was greater than 100 µM; in the assay on K-562 leukemia, 21.7 µM; with MDA-MB-231 breast it was 59.1 µM. Besides, the GI50 in the assay on UACC-257 melanoma was greater than 78.9 µM; in the assay on SW-620 colon it was 36.5 µM; in the assay with HT29 colon it was greater than 96 µM; with U251 CNS, greater than 75.8 µM. In addition, the TGI was greater than 100 µM in the assay on M14 melanoma; greater than 100 µM in the assay with SR leukemia; greater than 100 µM with 786-0 renal; greater than 100 µM in the assay with SF-295 CNS; greater than 74.6 µM with K-562 leukemia; greater than 100 µM in the assay with MDA-MB-231 breast. Also, the TGI in the assay with UACC-257 melanoma is greater than 100 µM; in the assay on SW-620 colon, 69.1 µM; in the assay with HT29 colon it was greater than 100 µM; in the assay on U251 CNS, greater than 100 µM.

As for `C#Cc1cccc(NC(=O)c2ccc(NC(=O)CCl)cc2)c1`, the GI50 in the assay on M14 melanoma is 22.2 µM; in the assay with SR leukemia it was 7.17 µM; in the assay on 786-0 renal it was 14.6 µM; with SF-295 CNS it was greater than 82.5 µM; with K-562 leukemia it was 17.4 µM; with MDA-MB-231 breast, 24 µM. Besides, the GI50 in the assay with UACC-257 melanoma is greater than 82.5 µM; in the assay on SW-620 colon, 15.7 µM; with HT29 colon, 16 µM; in the assay with U251 CNS it was 14.9 µM. Further, the TGI was greater than 82.5 µM in the assay on M14 melanoma; 26.6 µM in the assay with SR leukemia; 29.8 µM in the assay on 786-0 renal; greater than 82.5 µM in the assay on SF-295 CNS; greater than 82.5 µM with K-562 leukemia; greater than 82.5 µM in the assay on MDA-MB-231 breast. The TGI was greater than 82.5 µM in the assay with UACC-257 melanoma, 34 µM in the assay on SW-620 colon, 45.4 µM in the assay with HT29 colon and 34.8 µM in the assay with U251 CNS.

With `CCCCCC[C@H](C)NC(=O)c1ccc(Nc2nc3ccccc3c3occc23)cc1`, the GI50 in the assay with M14 melanoma is 2.25 µM; in the assay on SR leukemia it was 6.65 µM; in the assay with 786-0 renal, 2.35 µM; in the assay on SF-295 CNS, 2.62 µM; in the assay with K-562 leukemia it was 8.72 µM; in the assay with MDA-MB-231 breast, 12.6 µM. Further, the GI50 in the assay with UACC-257 melanoma is 2.64 µM; in the assay on SW-620 colon, 3.57 µM; with HT29 colon it was 2.53 µM; in the assay on U251 CNS, 19 µM. The TGI with M14 melanoma is 5.37 µM; with SR leukemia it was 55.5 µM; in the assay with 786-0 renal, 7.71 µM; with SF-295 CNS, greater than 100 µM; with K-562 leukemia it was greater than 100 µM; with MDA-MB-231 breast, 51.8 µM. The TGI in the assay with UACC-257 melanoma is 6.17 µM; with SW-620 colon it was greater than 100 µM; in the assay with HT29 colon, greater than 100 µM; in the assay on U251 CNS, greater than 100 µM.

For the compound `COc1cccc(Nc2nccc(-c3cnn4ncccc34)n2)c1`, the GI50 in the assay with M14 melanoma is 0.0777 µM; in the assay on SR leukemia it was 0.0114 µM; in the assay on 786-0 renal, 0.0871 µM; with SF-295 CNS, 0.0496 µM; with K-562 leukemia, 0.115 µM; in the assay with MDA-MB-231 breast it was 0.0839 µM. Also, the GI50 in the assay on UACC-257 melanoma is 0.0563 µM; in the assay on SW-620 colon, 0.0739 µM; in the assay with HT29 colon, 0.0513 µM; in the assay on U251 CNS it was 0.0553 µM. The TGI in the assay with M14 melanoma is 0.34 µM; in the assay on SR leukemia it was 0.0946 µM; with 786-0 renal, greater than 25 µM; in the assay with SF-295 CNS, greater than 25 µM; in the assay with K-562 leukemia, greater than 25 µM; with MDA-MB-231 breast, greater than 25 µM. In addition, the TGI was 0.16 µM in the assay with UACC-257 melanoma, greater than 12.3 µM in the assay on SW-620 colon, 0.198 µM in the assay with HT29 colon and 9.24 µM in the assay on U251 CNS.

Regarding `C=CCc1c(O)c(C(=O)/C=C/c2ccccc2)c(OC)c2ccoc12`, the GI50 with M14 melanoma was 5.36 µM; in the assay on SR leukemia, 2.15 µM; in the assay with 786-0 renal, 4.12 µM; in the assay with SF-295 CNS, 2.44 µM; in the assay on K-562 leukemia, 2.87 µM; in the assay on MDA-MB-231 breast it was 3.11 µM. The GI50 with UACC-257 melanoma was 2.56 µM; in the assay on SW-620 colon it was 3.32 µM; in the assay with HT29 colon, 3.01 µM; with U251 CNS, 2.36 µM. Besides, the TGI in the assay on M14 melanoma was determined as 22.9 µM; with SR leukemia, 6.05 µM; in the assay on 786-0 renal, 16.8 µM; with SF-295 CNS, 7.26 µM; in the assay with K-562 leukemia it was 16.2 µM; in the assay on MDA-MB-231 breast, 11.3 µM. Also, the TGI in the assay on UACC-257 melanoma amounted to 7.75 µM; in the assay on SW-620 colon it was 12.1 µM; in the assay on U251 CNS it was 7.46 µM.
